Data on 9 compounds can be found in patent US7928099B2, “Pyrimido [4,5-D] azepine derivatives as 5-HT2c agonists” (Pfizer Inc, priority 2007, dated 2011).

Structures can show the parent of a compound that is named as a salt.

The conditions of assay [1]: conscious rats and monkeys; i.v., i.p., s.c. or i.m. administration; cited from earlier work.
The conditions of assay [2]: cited from earlier work; for bladder capacity: anaesthetized guinea-pig cystometry; for urethral EMG activity: anaesthetized guinea-pig urethral EMG model.
For assay [3] the following is noted: anaesthetized dog; cited from earlier work.
For assay [4] the following is noted: man; cited from earlier work.
Assay [5] has as its target T1, human recombinant 5-HT2c receptor (Homo sapiens, UniProt P28335).
T1 construct: expressed in transfected cells; host or cells: CHO K1 (Chinese hamster ovary), stably transfected
T1 sequence (P28335 33-458): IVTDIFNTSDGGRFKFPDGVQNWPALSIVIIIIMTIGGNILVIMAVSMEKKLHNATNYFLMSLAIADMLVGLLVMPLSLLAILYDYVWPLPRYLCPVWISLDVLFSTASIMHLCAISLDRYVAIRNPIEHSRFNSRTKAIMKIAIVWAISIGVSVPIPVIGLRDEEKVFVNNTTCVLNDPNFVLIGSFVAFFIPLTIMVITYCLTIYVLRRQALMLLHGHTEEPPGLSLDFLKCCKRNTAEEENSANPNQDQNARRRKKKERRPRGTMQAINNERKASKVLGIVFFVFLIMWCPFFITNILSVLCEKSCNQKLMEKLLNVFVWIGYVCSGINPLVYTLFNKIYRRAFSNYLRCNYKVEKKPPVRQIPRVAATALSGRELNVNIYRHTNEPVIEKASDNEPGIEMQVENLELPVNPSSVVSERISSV
Briefly: FLIPR fluorescent Ca2+ mobilisation agonist assay in CHO K1 cells (Method 1). The class given is cell-based. As to conditions: for Emax: CHO-K1, efficacy; for Emax / Emax %: percentage of mean maximal response to 10 μM 5-HT; for EC50: agonist affinity, FLIPR; for Emax %: efficacy. Background: A change in cytosolic calcium serves as a functional read-out for many receptors and channels.

The target of assay [6] is T1, human recombinant 5-HT2c receptor. The assay is described as follows: 3H-meselurgine radioligand binding SPA, membranes from Swiss 3T3 cells (Method 2). As to conditions: 3H-meselurgine displacement, Cheng-Prusoff; Swiss 3T3 membranes; read-out: Binding Affinity Ki.

As to `C[C@H](N)Cn1ccc2cc(F)c(Cl)cc21` [Ro-60-0175], in assay [1], the penile erection result is on record as “enhance penile erection”. Moreover, in assay [2], the bladder capacity entry is given as “doses related increases” and the “urethral EMG activity” value is given as “doses related increases”. The urethral pressure entry in assay [3] is reported as “increased urethral pressure in a dose-dependent manner”.

Turning to `Clc1cccc(N2CCNCC2)c1` [m-CPP], the proerectile activity result in assay [4] was “associated with proerectile activity”. Further, the penile erection result in assay [1] is “enhance penile erection”. Besides, in assay [2], the bladder capacity entry is “doses related increases” and the “urethral EMG activity” value was “doses related increases”.

As for `CCc1cc2c(ccc3cnn(C[C@H](C)N)c32)o1` [YM348], in assay [2], the bladder capacity result was “doses related increases” and the “urethral EMG activity” value was “doses related increases”.

In the case of `O=c1n(CCCN2CCN(c3cccc(Cl)c3)CC2)nc2ccccn12` [trazodone], the proerectile activity result in assay [4] is listed as “associated with proerectile activity”.

By Emax is commonly meant the maximal effect, on the per cent scale that the assay sets. As a reminder, the EC50 is the midpoint of the concentration-response curve. Usually Ki stands for a dissociation constant, usually derived from enzyme kinetics or from competition with a known ligand. As for `c1ccc(Cc2nc3c(c(C4CC4)n2)CCNCC3)cc1` [Example 53, 2-Benzyl-4-cyclopropyl-6,7,8,9-tetrahydro-5H-pyrimido[4,5-d]azepine], in assay [5], the maximum response (Emax) was 49.6% and the EC50 was 293 nM. In addition, in assay [6], the inhibition constant (Ki) is 105 nM.

As for `CC1CCCN(c2nc(Cc3ccccc3)nc3c2CCNCC3)C1` (centres unmarked) [Example 30, 2-benzyl-4-(3-methylpiperidin-1-yl)-6,7,8,9-tetrahydro-5H-pyrimido[4,5-d]azepine hydrochloride], in assay [5], the maximal response (Emax) is 54.8% and the concentration giving a half-maximal response (EC50) turned out to be 984 nM. Besides, in assay [6], the inhibitory constant (Ki) stood at 99.1 nM.

For the compound `Cc1cccc(Cc2ncc3c(n2)CCNCC3)c1` [Example 65, 2-(3-Methylbenzyl)-6,7,8,9-tetrahydro-5H-pyrimido[4,5-d]azepine], in assay [5], the Emax is 83.9% and the EC50 is 211 nM. Also, the Ki in assay [6] came out at 244 nM.

For the compound “2-[Difluoro(phenyl)methyl]-N-methyl-6,7,8,9-tetrahydro-5H-pyrimido[4,5-d]azepin-4-amine [Example 8]”, in assay [5], the half-maximal effective concentration (EC50) amounted to 128 nM and the Emax % is on record as 54.30%. The Ki in assay [6] amounted to 44.5 nM.

On to `CN(Cc1ccccc1)c1nc2c(c(N3CCOCC3)n1)CCNCC2` [Example 15, N-benzyl-N-methyl-4-morpholin-4-yl-6,7,8,9-tetrahydro-5H-pyrimido[4,5,d]azepin-2-amine], for which, in assay [5], the half-maximal effective concentration (EC50) amounted to 202 nM and the Emax % is reported as 64.10%. Further, the Ki in assay [6] stood at 181 nM.
